# Source: paper PMC8395308 (International Journal of Molecular Sciences, 2021)
# Values joined by “and” are separate entries in the source; they are usually repeats but may differ in a detail not shown here. Equal values may be shown once. “Also recorded” adds a separate entry of the source. Where a name gives a salt, the structure may show the parent alone.
# Tests used:
# [1] = target: receptor binding domain (HC fragment) of BoNT/A binding to the fourth luminal domain of SV2C (Clostridium botulinum, UniProt P0DPI0); test: biochemical; design: species or system Mus musculus; conditions: for IC50: IC50 (µM), TSP-RSP interaction inhibition; for inhibition at 100 µM: read-out: Maximal Inhibition (%)
# BoNT/A = BoNT/A (Clostridium botulinum, UniProt P0DPI0); design: species or system CD-1 mice; conditions: mouse, in vivo; for Survival (protection) of treated mice / Therapeutic effect versus solvent (log-rank test): ip
# BoNT/E = test system: BoNT/E; design: species or system CD-1 mice; conditions: mouse, in vivo
# receptor binding domain (HC fragment) of BoNT/A binding to the fourth luminal domain of SV2C, sequence (P0DPI0 872-1296 limits assumed): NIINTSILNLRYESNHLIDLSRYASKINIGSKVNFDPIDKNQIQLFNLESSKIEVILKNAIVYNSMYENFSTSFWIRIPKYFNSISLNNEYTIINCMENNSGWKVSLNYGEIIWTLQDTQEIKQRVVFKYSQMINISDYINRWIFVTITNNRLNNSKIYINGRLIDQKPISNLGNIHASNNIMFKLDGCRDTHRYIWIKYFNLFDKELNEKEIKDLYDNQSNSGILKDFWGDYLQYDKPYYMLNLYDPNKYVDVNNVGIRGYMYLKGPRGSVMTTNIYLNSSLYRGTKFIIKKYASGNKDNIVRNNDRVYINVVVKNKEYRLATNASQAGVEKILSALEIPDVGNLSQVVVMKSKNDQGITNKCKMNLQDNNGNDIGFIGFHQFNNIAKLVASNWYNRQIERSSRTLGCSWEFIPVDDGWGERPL
# BoNT/A, sequence (P0DPI0 2-448 limits assumed): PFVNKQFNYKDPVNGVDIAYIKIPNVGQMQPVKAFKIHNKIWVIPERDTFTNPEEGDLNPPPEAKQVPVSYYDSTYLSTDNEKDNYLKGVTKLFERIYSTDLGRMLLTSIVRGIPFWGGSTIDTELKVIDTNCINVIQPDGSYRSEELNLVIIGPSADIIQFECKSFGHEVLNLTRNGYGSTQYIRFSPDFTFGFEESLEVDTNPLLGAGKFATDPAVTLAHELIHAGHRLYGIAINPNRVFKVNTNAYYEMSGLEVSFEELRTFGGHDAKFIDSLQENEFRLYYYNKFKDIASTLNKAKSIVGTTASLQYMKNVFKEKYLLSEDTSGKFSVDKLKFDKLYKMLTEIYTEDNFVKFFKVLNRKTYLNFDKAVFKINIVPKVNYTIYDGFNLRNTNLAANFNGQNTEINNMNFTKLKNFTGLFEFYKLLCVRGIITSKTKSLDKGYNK
# BoNT/A, sequence (P0DPI0 449-1296 limits assumed): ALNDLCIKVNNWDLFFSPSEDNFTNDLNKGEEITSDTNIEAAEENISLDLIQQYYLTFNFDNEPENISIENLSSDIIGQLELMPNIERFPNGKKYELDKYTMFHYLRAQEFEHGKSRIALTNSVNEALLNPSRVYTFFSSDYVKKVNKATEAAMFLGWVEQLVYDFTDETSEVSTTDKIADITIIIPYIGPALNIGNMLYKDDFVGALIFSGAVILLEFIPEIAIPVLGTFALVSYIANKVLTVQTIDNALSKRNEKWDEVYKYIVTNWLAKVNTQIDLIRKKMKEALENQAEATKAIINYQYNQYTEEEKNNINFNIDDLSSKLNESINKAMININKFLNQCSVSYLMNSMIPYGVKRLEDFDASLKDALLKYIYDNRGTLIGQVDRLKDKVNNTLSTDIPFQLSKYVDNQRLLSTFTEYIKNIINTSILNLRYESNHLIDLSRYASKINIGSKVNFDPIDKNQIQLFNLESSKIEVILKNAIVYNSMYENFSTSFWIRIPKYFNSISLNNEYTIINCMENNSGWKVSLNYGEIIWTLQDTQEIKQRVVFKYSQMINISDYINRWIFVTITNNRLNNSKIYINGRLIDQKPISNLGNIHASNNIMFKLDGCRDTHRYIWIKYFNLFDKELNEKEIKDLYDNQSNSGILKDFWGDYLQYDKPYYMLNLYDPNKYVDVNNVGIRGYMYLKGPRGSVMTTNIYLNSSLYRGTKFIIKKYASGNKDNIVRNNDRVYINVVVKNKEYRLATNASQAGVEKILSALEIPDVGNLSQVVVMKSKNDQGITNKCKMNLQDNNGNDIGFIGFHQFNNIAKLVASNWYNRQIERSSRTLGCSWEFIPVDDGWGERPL
Compound,IC50 [1] [µM],inhibition at 100 µM [1] [%],median survival time (hr) treated (BoNT/A) [h],survival time of the nonsurviving treated animals (BoNT/A) [h],Survival (protection) of treated mice (BoNT/A),Therapeutic effect versus solvent (log-rank test) (BoNT/A),median TTD / median survival time of treated mice (BoNT/E) [h],median survival time (hr) treated (BoNT/E) [h],Survival of treated mice (BoNT/E; ip) [%],Therapeutic effect versus solvent (log-rank test) (BoNT/E; ip),median survival time / TTD in the treated group (BoNT/A) [h],Maximal Inhibition (%) [1] [%],Inhibition of the interaction between HC/A fragment and SV2C [1]
"NC(Cc1cc(O)c(O)cc1O)C(=O)O (racemic) [6-OHD, 6-Hydroxy-DL-DOPA]",1,98,28.7,28.7,33%,Significant beneficial therapeutic effects,9.8,9.8,–,–,–,–,–
"O=C(O)C1=CC(=C(c2ccc(O)c(C(=O)O)c2)c2ccc(O)c(C(=O)O)c2)C=CC1=O [ATA, Aurintricarboxylic acid]",2,100,–,96,92% and 91.6%,Significant beneficial therapeutic effects,–,–,100,fully protective; also recorded: completely protected,–,–,–
"NC(CO)C(=O)NNCc1ccc(O)c(O)c1O (stereo not drawn) [Benserazide, Benserazide hydrochloride]",18,95,29.8,–,–,Significant beneficial therapeutic effects,10.7,10.7,–,–,29.8,–,–
CO/N=C(\C(=O)N[C@@H]1C(=O)N2C(C(=O)O)=C(COC(C)=O)CS[C@H]12)c1csc(N)n1 [Cefotaxime sodium],3,~90,21.0,–,–,did not exert beneficial therapeutic effects,–,–,–,–,–,91,–
CC(=O)OCC1=C(C(=O)O)N2C(=O)[C@@H](NC(=O)CCC[C@@H](N)C(=O)O)[C@H]2SC1 [Cephalosporin C zinc salt],27,~90,–,–,–,–,–,–,–,–,–,–,–
Nc1nc2[nH]c(=O)cnc2c(=O)[nH]1 [Isoxanthopterin],34,68,26.67,–,–,did not exert beneficial therapeutic effects,–,–,–,–,–,–,–
"C=CC1=C(C)c2cc3[nH]c(cc4nc(cc5[nH]c(cc1n2)c(C)c5CCC(=O)O)C(CCC(=O)O)=C4C)c(C)c3C=C [PPIX, Protoporphyrin IX disodium]",84,~80,26.0,–,–,Significant beneficial therapeutic effects,10.7,10.7,–,–,26.0,–,–
NCCOc1cc(C(=O)Nc2cc(OCCN)c3ccccc3n2)nc(C(=O)Nc2cc(OCCN)c3ccccc3n2)c1 [Pyridostatin trifluoroacetate salt],4,~80,22.17,–,–,did not exert beneficial therapeutic effects,–,–,–,–,–,–,–
C[C@@](Cc1ccc(O)c(O)c1)(NN)C(=O)O [carbidopa],–,–,–,–,–,–,–,–,–,–,–,–,failed to inhibit
